The assay has as its target LTB4-receptor (Homo sapiens, UniProt Q15722). As to the kind of experiment: Ki (LTB4-receptor; tests as described in WO 93/16036, pages 15 to 17). Type of assay: binding.

Structures can show the parent of a compound that is named as a salt.

LTB4-receptor, sequence (Q15722 whole entry): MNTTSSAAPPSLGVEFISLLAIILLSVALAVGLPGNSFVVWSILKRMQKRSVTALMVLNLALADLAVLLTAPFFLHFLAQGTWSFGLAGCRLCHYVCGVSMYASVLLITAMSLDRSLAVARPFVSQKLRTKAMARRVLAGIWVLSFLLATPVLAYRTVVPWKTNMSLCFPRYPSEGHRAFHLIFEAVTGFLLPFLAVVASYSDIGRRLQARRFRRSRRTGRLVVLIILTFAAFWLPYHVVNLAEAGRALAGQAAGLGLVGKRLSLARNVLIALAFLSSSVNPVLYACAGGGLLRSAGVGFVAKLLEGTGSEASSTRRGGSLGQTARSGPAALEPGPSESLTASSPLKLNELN

For orientation: Ki means a measure of affinity in units of concentration, obtained from inhibition or displacement. Low readings indicate higher affinity, high ones lower affinity. Compound `CC(C)N(C(=O)c1ccc(C(C)(C)c2ccc(OCc3cccc(COc4ccc(CN)cc4)c3)cc2)cc1)C(C)C` registered a Ki of 0.0131 µM.

In the case of `CC(C)(c1ccc(O)cc1F)c1ccc(OCc2cccc(COc3ccc(CN)cc3)c2)cc1F`, the Ki worked out at 0.0106 µM. This Ki and that of the compound before are within 1.5-fold of each other.

Compound `NCc1ccc(OCc2cccc(COc3ccc([S+]([O-])c4ccc(O)cc4)cc3)c2)cc1` (stereo not drawn) gave a Ki of 0.0016 µM. This Ki is about 6.6-fold lower than that of the compound before.

For the compound `CC(C)(c1ccc(O)cc1)c1ccc(OCc2cccc(COc3ccc(CN)cc3)c2)cc1` [4-[[3-[[4-[1-(4-Hydroxyphenyl)-1-methylethyl]phenoxy]methyl]phenyl]methoxy]-benzylamine hydrochloride], the Ki was determined as 0.0157 µM.

`Cc1cc(C(C)(C)c2ccc(OCc3cccc(COc4ccc(CN)cc4)c3)c(C)c2)ccc1O` showed a Ki of 0.0325 µM. Compared with the last compound, the Ki is about 2.1-fold higher.

The compound `CC(C)(CN)c1ccc(OCc2cccc(COc3ccc(CN)cc3)c2)cc1` displayed a Ki of 0.0673 µM.

`NCc1ccc(OCc2cccc(COc3ccc(Oc4ccc(O)cc4)cc3)c2)cc1` came in with a Ki of 0.0597 µM.

With `COC(=O)c1ccc(C(C)(C)c2ccc(OCc3cccc(COc4ccc(CN)cc4)c3)cc2)cc1`, the inhibition constant Ki was 0.0114 µM.

`CC(C)(c1ccccc1)c1ccc(O)c(OCc2cccc(COc3ccc(CN)cc3)c2)c1` had an inhibition constant (Ki) of 0.0219 µM.

`CC(c1ccc(O)cc1)c1ccc(OCc2cccc(COc3ccc(CN)cc3)c2)cc1` (stereo not drawn) registered a Ki of 0.0215 µM.

In turn, `NCc1ccc(OCc2cccc(COc3ccc(Sc4ccc(O)cc4)cc3)c2)cc1` showed a Ki of 0.0287 µM.

Compound `CC(C)(c1ccccc1)c1ccc(OCc2cccc(COc3ccc(CN)cc3)c2)cc1` returned a Ki of 0.0162 µM.

Compound `CC(C)(c1ccc(OCc2cccc(COc3ccc(CN)cc3)c2)cc1)c1ccc(O[C@@H]2O[C@H](CO)[C@@H](O)[C@H](O)[C@H]2O)cc1` showed a Ki of 0.00055 µM.

Take `NCc1ccc(OCc2cccc(COc3ccc(C(c4ccc(O)cc4)(C(F)(F)F)C(F)(F)F)cc3)c2)cc1`: the inhibition constant (Ki) is 0.0218 µM.

`CC(C)(c1ccccc1)c1ccc(OCc2cccc(COc3ccc(CCN)cc3)c2)cc1` [2-[4-[[3-[[4-[1-phenyl-1-methylethyl]phenoxy]methyl]phenyl]methoxy]]-ethylamine hydrochloride] showed a Ki of 0.0306 µM.

As for `CC(C)(c1ccc(OCc2cccc(COc3ccc(CN)cc3)c2)cc1)c1ccc(C(=O)N2CCCCC2)cc1`, the Ki came to 0.00086 µM.

`CCOC(=O)C(C)(c1ccc(O)cc1)c1ccc(OCc2cccc(COc3ccc(CN)cc3)c2)cc1` (stereo not drawn) yielded a Ki of 0.00285 µM. Against the preceding compound, the Ki is about 3.3-fold higher.

For the compound `CC(C)(c1ccc(O)cc1)c1ccc(C(C)(C)c2ccc(OCc3cccc(COc4ccc(CN)cc4)c3)cc2)cc1`, the Ki worked out at 0.0508 µM.

`CC(C)(C)Oc1ccc(OCc2cccc(COc3ccc(CN)cc3)c2)cc1` showed a Ki of 0.0075 µM.

For the compound `CCOC(=O)NCc1ccc(OCc2cccc(COc3ccc(C(C)(C)c4ccc(O)cc4)cc3)c2)cc1`, the Ki came to 0.263 µM.

Turning to `NCc1ccc(OCc2cccc(COc3ccc(C4(c5ccc(O)cc5)CCC4)cc3)c2)cc1`, the affinity, expressed as Ki, was 0.0111 µM. Against the preceding compound, the Ki is about 24-fold lower.

On to `NCc1ccc(OCc2cccc(COc3ccc(Cc4ccc(O)cc4)cc3)c2)cc1`, for which the affinity corresponds to a Ki of 0.0386 µM.

Regarding `CC(C)(c1ccc(O)cc1)c1ccc(OCc2cccc(COc3ccc(CN)cc3)c2F)cc1`, the Ki turned out to be 0.0279 µM. The Ki values of the last two compounds are within 1.5-fold of each other.

As to `CC(C)(c1ccccc1)c1ccc(OCc2cccc(COc3ccc(CN)cc3)c2)c(O)c1`, the Ki is 0.0176 µM.

Compound `CC(C)(c1ccc(O)cc1)c1ccc(OCc2cccc(COc3ccc(CN)cc3)c2)c(O)c1` returned a Ki of 0.0024 µM.

`CCOC(=O)CCC(C)(c1ccc(O)cc1)c1ccc(OCc2cccc(COc3ccc(CN)cc3)c2)cc1` (stereo not drawn) yielded a Ki of 0.0149 µM.

Consider `NCc1ccc(OCc2cccc(COc3cccc(C(=O)c4ccccc4)c3)c2)cc1`, for which the Ki amounted to 0.0138 µM. The Ki values of the last two compounds are within 1.5-fold of each other.

On to `NCc1ccc(OCc2cccc(COc3ccc(S(=O)(=O)c4ccc(O)cc4)cc3)c2)cc1`, for which the Ki came out at 0.0019 µM.

In the case of `CC(CCC(=O)O)(c1ccc(O)cc1)c1ccc(OCc2cccc(COc3ccc(CN)cc3)c2)cc1` (stereo not drawn), the Ki was 0.0005 µM.

The compound `CCOC(=O)NCC(C)(C)c1ccc(OCc2cccc(COc3ccc(CN)cc3)c2)cc1` gave a Ki of 0.0045 µM.
